Assay results published in ChEMBL document CHEMBL1201862, “PubChem BioAssay data set” (2004).
The source made the active and inactive calls.

Experiments:
[1] = biological target: UDP-galactopyranose mutase (Mycobacterium tuberculosis, UniProt P9WIQ1); experiment: Inhibitors of Mycobacterium tuberculosis UDP-galactopyranose mutase (UGM) enzyme Measured in Biochemical System Using Plate Reader - 2105-02_Inhibitor_Dose_CherryPick_Activity. [Related pubchem assays (depositor defined):AID504439]
Protein skinhead-1 = biological target: T1, Protein skinhead-1 (Caenorhabditis elegans, UniProt P34707); assay type: functional
T1 sequence (P34707 whole entry): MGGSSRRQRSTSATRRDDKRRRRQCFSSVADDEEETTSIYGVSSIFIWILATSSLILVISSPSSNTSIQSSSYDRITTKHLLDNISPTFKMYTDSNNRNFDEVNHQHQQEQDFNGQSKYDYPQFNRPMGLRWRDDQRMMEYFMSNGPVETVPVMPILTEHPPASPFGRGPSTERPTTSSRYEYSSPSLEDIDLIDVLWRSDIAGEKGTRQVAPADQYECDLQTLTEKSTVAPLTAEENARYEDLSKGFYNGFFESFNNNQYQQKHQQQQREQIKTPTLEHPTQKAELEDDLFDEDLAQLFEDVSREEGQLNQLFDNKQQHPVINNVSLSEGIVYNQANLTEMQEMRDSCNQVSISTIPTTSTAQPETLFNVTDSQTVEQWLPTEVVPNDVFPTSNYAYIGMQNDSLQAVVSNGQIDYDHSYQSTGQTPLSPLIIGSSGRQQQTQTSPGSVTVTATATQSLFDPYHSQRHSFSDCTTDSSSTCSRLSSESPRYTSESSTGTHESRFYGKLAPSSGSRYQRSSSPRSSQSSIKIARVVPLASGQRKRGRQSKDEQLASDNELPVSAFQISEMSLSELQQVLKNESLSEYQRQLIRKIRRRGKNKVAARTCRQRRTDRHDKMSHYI

[2] = biological target: Peroxisome proliferator-activated receptor gamma/Nuclear receptor coactivator 1 (Homo sapiens, UniProt P37231); experiment: (§1) TR-FRET dose response biochemical High Throughput Screening assay for agonists of the steroid receptor coactivator 1 (SRC-1) recruitment by the peroxisome proliferator-activated receptor gamma (PPAR gamma): non-selective agonists. [Related pubchem assays (depositor defined):AID1300, AID1808, AID504735, AID631]; assay type: protein assay
[3] = biological target: Peroxisome proliferator-activated receptor gamma/Nuclear receptor coactivator 3 (Homo sapiens, UniProt P37231); experiment: as §1, with “3 (SRC-3)” for “1 (SRC-1)”, “assays: 1301 (Confirmation screen.), 1048 (Primary screen.)]” for “assays (depositor defined):AID1300, AID1808, AID504735, AID631]”; assay type: functional
Sequence of Peroxisome proliferator-activated receptor gamma/Nuclear receptor coactivator 3 (P37231 whole entry): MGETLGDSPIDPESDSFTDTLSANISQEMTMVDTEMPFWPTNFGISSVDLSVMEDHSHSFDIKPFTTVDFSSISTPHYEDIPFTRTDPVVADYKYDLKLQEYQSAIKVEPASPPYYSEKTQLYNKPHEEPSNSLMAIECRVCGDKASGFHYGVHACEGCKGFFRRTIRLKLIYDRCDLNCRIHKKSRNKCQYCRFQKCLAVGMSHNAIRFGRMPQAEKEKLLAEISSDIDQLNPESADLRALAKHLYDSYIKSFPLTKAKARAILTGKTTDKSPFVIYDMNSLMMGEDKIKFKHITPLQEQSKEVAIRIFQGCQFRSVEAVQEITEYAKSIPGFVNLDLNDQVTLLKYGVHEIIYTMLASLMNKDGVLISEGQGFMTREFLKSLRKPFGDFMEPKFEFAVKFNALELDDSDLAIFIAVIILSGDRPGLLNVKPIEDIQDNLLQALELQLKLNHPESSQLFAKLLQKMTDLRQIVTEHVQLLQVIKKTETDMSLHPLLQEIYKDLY
Sequence of Peroxisome proliferator-activated receptor gamma/Nuclear receptor coactivator 3 (Q9Y6Q9 whole entry, further chain): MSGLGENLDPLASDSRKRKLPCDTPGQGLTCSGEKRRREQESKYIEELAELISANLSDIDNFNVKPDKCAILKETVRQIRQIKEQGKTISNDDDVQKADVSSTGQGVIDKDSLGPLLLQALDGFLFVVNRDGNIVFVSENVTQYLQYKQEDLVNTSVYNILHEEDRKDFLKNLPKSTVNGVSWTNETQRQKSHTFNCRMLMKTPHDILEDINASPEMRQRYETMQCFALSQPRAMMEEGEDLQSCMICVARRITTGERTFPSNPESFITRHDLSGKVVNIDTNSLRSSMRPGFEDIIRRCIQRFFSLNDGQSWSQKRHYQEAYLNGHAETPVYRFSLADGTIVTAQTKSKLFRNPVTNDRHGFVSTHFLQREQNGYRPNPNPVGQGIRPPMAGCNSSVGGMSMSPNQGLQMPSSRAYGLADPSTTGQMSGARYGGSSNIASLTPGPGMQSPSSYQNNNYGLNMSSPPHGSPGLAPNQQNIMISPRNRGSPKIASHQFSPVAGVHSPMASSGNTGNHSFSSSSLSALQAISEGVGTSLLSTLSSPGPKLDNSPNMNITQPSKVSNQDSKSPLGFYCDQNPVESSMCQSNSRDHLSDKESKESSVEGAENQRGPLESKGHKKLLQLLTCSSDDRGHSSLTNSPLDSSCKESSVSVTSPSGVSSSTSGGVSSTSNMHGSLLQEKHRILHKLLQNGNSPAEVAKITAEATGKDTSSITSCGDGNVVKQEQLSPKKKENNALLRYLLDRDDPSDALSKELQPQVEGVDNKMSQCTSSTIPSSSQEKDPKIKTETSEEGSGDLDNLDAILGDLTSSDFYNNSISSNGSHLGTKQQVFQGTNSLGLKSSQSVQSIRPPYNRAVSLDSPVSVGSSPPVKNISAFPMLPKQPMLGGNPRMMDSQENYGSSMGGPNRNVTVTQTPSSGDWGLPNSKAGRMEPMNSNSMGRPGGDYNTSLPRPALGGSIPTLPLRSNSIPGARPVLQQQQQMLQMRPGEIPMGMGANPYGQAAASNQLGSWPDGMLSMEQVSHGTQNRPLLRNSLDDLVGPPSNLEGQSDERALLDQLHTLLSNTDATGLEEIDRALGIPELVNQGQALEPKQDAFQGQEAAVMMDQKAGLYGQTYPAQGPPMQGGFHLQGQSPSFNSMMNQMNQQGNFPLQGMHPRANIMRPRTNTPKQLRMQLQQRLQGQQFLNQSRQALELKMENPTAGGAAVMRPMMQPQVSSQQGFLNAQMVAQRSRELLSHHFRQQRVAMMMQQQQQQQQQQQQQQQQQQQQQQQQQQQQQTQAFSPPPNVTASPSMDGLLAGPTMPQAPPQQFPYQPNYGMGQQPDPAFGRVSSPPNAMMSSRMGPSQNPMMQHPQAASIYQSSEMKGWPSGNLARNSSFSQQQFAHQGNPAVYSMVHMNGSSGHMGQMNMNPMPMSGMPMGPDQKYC

[4] = biological target: Peroxisome proliferator-activated receptor gamma/Nuclear receptor coactivator 2 (Homo sapiens, UniProt P37231); experiment: TR-FRET dose response biochemical High Throughput Screening assay for agonists of the steroid receptor coactivator 2 (SRC-2) recruitment by the peroxisome proliferator-activated receptor gamma (PPAR gamma): non-selective agonists. [Related pubchem assays: 1297, 1032 ]; assay type: functional
Sequence of Peroxisome proliferator-activated receptor gamma/Nuclear receptor coactivator 2 (P37231 whole entry): as the sequence (P37231 whole entry) above
Sequence of Peroxisome proliferator-activated receptor gamma/Nuclear receptor coactivator 2 (Q15596 whole entry, further chain): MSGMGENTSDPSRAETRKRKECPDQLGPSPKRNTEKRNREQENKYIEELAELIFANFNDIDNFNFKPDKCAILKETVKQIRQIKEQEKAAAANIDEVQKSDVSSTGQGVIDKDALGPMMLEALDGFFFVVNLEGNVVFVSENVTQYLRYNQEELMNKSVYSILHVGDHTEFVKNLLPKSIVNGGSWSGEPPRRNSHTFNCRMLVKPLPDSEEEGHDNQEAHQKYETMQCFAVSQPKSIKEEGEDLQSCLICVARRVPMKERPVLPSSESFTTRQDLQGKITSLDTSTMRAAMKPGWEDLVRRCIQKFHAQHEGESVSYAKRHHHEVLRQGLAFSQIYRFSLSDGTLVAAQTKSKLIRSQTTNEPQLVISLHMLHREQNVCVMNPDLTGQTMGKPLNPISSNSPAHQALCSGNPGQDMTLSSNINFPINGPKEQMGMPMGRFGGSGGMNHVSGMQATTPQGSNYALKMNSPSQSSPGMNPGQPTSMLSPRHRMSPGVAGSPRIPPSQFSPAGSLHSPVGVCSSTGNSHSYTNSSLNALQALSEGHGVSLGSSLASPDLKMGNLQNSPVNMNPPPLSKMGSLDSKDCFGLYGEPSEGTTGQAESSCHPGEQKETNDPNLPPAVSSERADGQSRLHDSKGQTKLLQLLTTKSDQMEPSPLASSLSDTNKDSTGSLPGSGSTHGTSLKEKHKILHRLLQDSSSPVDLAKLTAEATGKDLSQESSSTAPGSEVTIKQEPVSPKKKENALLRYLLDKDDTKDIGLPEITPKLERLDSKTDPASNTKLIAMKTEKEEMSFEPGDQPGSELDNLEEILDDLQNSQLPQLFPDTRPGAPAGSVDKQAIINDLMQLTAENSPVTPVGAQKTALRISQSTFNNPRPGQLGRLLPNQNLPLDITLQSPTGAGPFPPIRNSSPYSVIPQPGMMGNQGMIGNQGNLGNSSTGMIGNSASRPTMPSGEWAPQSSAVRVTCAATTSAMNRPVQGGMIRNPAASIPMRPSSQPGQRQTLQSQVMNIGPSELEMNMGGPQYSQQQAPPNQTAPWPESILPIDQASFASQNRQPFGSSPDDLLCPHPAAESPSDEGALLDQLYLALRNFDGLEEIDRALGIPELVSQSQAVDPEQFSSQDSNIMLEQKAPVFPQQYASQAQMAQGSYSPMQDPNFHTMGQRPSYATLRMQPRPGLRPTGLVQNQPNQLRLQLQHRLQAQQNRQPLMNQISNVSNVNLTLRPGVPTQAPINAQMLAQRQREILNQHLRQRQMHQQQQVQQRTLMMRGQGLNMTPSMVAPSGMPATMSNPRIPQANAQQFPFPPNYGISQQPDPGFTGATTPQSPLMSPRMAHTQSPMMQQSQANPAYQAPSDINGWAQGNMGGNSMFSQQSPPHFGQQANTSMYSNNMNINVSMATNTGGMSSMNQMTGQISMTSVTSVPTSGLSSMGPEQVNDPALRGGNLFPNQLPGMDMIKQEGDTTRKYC

HEK293 [5] = experiment: cells; conditions: Homo sapiens
[6] = biological target: Heat shock protein HSP 90-alpha (Homo sapiens, UniProt P07900); assay type: functional, organism-based
HEK293 [7] = experiment: cells; conditions: Homo sapiens; remark: listed apart in the source
[8] = biological target: Induced myeloid leukemia cell differentiation protein Mcl-1 (Homo sapiens, UniProt Q07820); assay type: functional
[9] = biological target: T2, Microphthalmia-associated transcription factor (Homo sapiens, UniProt O75030); experiment: TRPM1 promoter luciferase signal decrease, dose response, MITF inhibitor project, cell-based, SK-MEL-5, cherry-picked, set 3 (AID 493073); assay type: functional
T2 sequence (O75030 whole entry): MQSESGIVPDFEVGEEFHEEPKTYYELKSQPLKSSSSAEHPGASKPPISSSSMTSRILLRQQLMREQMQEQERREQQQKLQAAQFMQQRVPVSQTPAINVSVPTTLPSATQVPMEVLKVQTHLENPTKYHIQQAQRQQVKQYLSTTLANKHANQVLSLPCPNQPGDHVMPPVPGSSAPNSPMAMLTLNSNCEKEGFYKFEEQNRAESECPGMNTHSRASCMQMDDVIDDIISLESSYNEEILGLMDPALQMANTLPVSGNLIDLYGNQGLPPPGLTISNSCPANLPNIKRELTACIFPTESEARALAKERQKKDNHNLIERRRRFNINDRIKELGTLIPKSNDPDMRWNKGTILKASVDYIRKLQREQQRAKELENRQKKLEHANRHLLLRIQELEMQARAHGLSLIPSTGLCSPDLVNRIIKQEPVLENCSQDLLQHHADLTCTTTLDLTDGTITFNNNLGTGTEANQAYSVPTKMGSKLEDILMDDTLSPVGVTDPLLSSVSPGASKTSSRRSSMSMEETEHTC

[10] = biological target: T3, Heat shock factor protein 1 (Mus musculus, UniProt P38532); experiment: HSF1 potentiators in luciferase reporter cells, confirmation, cell-based, NIH3T3, luminescence, dose retest (AID 435004); assay type: functional;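 further: stress induced by proteasome inhibitor MG132 added 30 min after compound; luciferase reporter driven by HSF1 response element in NIH3T3 cells; actives raise luminescence as potentiators of the MG132 stress response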
T3 sequence (P38532 whole entry): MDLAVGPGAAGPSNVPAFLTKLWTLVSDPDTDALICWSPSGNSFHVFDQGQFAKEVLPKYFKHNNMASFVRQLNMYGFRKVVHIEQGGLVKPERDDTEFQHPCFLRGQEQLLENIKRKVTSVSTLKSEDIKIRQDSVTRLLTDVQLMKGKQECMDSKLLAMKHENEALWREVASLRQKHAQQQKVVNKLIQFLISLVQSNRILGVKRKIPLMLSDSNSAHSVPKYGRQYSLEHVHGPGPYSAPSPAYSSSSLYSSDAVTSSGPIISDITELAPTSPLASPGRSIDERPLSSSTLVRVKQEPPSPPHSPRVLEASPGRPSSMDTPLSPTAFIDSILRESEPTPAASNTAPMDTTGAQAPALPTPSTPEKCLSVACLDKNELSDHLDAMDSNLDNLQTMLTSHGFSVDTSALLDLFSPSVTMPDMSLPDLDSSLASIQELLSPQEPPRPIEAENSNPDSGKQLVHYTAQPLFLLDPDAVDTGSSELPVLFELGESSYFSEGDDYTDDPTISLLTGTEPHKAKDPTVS

Vero [11] = experiment: cells; assay type: functional; conditions: Chlorocebus sabaeus
Genome polyprotein = Genome polyprotein (dengue virus type 2, UniProt P29990); experiment: Dengue-2 NS5 methyltransferase inhibitors, primary screen, biochemical, confirmation dose response (AID 588689); assay type: functional
Large T antigen = Large T antigen (Simian virus 40, UniProt P03070); assay type: functional, Betapolyomavirus macacae;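 further: Confirmatory-stage PubChem screen for compounds that inhibit SV40 T antigen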
SUMO-activating enzyme [12] = biological target: T4, SUMO-activating enzyme (Homo sapiens, UniProt Q9UBT2); experiment: SUMOylation inhibitor hit validation, confirmation, SUMOylation inhibitor project, biochemical, AlphaScreen (AID 2018); assay type: functional
T4 sequence (Q9UBE0 whole entry): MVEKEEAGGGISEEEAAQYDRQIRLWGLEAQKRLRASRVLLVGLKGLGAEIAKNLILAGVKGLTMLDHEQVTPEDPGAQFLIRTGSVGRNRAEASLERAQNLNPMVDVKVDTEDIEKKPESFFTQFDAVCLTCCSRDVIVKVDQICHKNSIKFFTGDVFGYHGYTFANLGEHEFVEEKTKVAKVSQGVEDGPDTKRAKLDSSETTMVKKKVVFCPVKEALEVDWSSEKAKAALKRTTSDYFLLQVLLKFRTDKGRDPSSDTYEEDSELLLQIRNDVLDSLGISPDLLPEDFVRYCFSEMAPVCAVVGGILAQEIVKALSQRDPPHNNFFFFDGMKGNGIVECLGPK
T4 sequence (Q9UBT2 whole entry): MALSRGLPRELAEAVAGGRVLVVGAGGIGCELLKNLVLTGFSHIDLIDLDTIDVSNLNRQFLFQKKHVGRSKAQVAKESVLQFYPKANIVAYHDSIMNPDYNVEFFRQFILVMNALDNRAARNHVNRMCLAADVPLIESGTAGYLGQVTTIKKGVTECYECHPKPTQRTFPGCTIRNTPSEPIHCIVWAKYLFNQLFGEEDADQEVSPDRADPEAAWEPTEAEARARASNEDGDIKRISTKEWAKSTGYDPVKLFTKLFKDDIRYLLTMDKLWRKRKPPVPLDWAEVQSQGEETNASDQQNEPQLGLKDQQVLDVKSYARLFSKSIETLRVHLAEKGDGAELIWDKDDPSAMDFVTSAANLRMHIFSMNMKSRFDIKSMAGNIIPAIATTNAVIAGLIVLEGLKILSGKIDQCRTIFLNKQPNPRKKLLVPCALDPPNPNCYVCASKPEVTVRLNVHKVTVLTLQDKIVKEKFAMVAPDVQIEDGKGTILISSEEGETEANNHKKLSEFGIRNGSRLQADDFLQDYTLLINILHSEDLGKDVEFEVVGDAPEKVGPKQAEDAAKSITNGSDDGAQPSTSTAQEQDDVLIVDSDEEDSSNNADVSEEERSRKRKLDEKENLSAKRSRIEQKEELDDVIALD

SUMO-activating enzyme [13] = biological target: T4, SUMO-activating enzyme; experiment: inhibitors of in vitro SUMOylation cascade, primary screen, biochemical, HTRF, uHTS (AID 2006); assay type: protein-complex assay
Vero [14] = experiment: Vero cell cytotoxicity, cytotoxicity control for flavivirus capping enzyme inhibitors (AID 588742); assay type: functional; conditions: Chlorocebus sabaeus
[15] = biological target: DNA (cytosine-5)-methyltransferase 1 (Homo sapiens, UniProt P26358); experiment: DNMT1 methyltransferase inhibitors, confirmation, biochemical, fluorescent molecular beacon (AID 602386); assay type: functional
[16] = biological target: Hepatocyte nuclear factor 4-alpha (Homo sapiens, UniProt P41235); assay type: functional, cell-based;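 further: biochemical luminescence-based dose-response counterscreen measuring inhibition of HNF4 dimerization, run alongside a screen for blockers of ABHD5–perilipin-5 interaction; split luciferase complementation of HNF4 fusion proteins in cell lysate measuring dimerization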
[17] = biological target: Lysine-specific demethylase 4C (Homo sapiens, UniProt Q9H3R0); experiment: GASC-1 (JMJD2C) histone demethylase inhibitors, dose response, biochemical, DELFIA europium, cherry-picked samples (AID 488835); assay type: functional
[18] = THP-1 cell cytotoxicity, dose response, cytotoxicity control for Vif-APOBEC3G degradation inhibitor project, THP-1 cells (AID 1117359); assay type: functional; conditions: Human immunodeficiency virus 1, THP-1

For `Cc1cc(C(C)(C)C)cc(S(=O)(=O)Nc2ccc(C(=O)O)cc2)c1C`, the AC50 [1] was 0.201 µM (active).
In the case of `Brc1cc(Br)c2nc(-c3cccs3)ccc2c1`, the IC50 (Protein skinhead-1) is reported as > 100 µM (inactive), the EC50 [2] is reported as 34.7 µM (inactive) and the EC50 [3] is reported as 47.9 µM (not active). The EC50 [4] was 30 µM (not active).
With `O=C(C=Cc1ccccn1)c1ccccc1O` the EC50 (HEK293 [5]) was > 59.6 µM (inactive), the AC50 [6] was 2.37 µM (active) and the EC50 (HEK293 [7]) was > 59.6 µM (inactive).
For `O=C1NC(=S)NC(=O)C1=Cc1cccn1-c1ccc(O)cc1`, the IC50 [8] was 4.45 µM (active), the AC50 [9] was 11.4 µM (active) and the EC50 [10] was 10.6 µM (active). The CC50 (Vero [11]) was 23 µM (active), the IC50 (Genome polyprotein) was 34.2 µM (active) and the IC50 (Large T antigen) was 30.3 µM (active). The IC50 (SUMO-activating enzyme [12]) was 7.4 µM (active), the IC50 (SUMO-activating enzyme [13]) was 21.9 µM (active) and the CC50 (Vero [14]) was 34.8 µM (active). The IC50 [15] was 4.82 µM (active).
With `CN(C)C(=S)N=c1ssc(=S)n1Cc1ccccc1` the EC50 (HEK293 [5]) was > 59.7 µM (inactive) and the EC50 (HEK293 [7]) was > 59.7 µM (inactive).
In the case of `O=C1NC(=O)N(Cc2ccc(F)cc2)C(=O)/C1=C\C=C\c1ccco1`, the AC50 [9] is reported as 6.63 µM (active), the IC50 [16] is reported as 1.87 µM (active) and the AC50 [17] is reported as 7.02 µM (active). The CC50 [18] was 28.9 µM (active).
